The values that follow come from US9714260B2, “Asymmetrical Si rhodamine and rhodol synthesis” (THE UNIVERSITY OF TOKYO, priority 2013, dated 2017).

A short description of data set [1]: Optical characteristics of dyes in phosphate buffered saline of pH 7.4. It is filed as physicochemical.
Data set [2] can be described thus: Absorbance and fluorescence of Compound 6 in various solvents. In kind it is physicochemical. The method, then:
Next, the absorbance and fluorescence spectra of Ac-IndoSiR (Compound 6) in various solvents were measured. […] The excitation wavelength was 540 nm. The maximum absorbance fluorescence wavelength, molar absorbance coefficient, and fluorescence quantum yield of Compound 6 in various solvents are shown in Table 5. The fluorescence quantum yield (ΦFl=0.44; determined using an absolute fluorescence quantum yield measurement device) of Compound 6 in chloroform was used as the fluorescence reference to determine the fluorescence quantum yield in various solvents.

The test system of another data set is rat liver microsomes. In words: In vitro experiment using rat liver microsomes (hypoxia vs normal oxygen). The note with it: 1 μM compound, 226 μg rat liver microsomes, 50 μM NADPH; ex 640 nm, em 660 nm. In kind it is biochemical. An excerpt: The excitation wavelength was 640 nm and the fluorescence wavelength was 660 nm. In FIG. 26, Hyp is the measurement result for hypoxia and Nor is the measurement result for normal oxygen level.

The conditions of data set [3]: in water; cited from earlier work.
The nature of data set [4]: Absorbance and fluorescence profiles of Compounds 1-4 in pH 7.4 sodium phosphate. It is filed as physicochemical. Conditions: pH 7.4 sodium phosphate buffer solution; for Absmax / Emmax / ε: 0.1% DMSO; for Φfl: cresyl violet in methanol as fluorescence reference. As for the experimental part:
Absorbance and fluorescence profiles of 2-MeSiR620 (Compound 1) obtained in step (f) and 2-MeSiR620-a1 (Compound 2) obtained in step (i) were measured. Measurements were carried out in an aqueous solution of 0.1M sodium phosphate having a pH 7.4 and containing 0.1% DMSO. The wavelength of the excitation light in the fluorescence profile measurement was 620 nm for 2-MeSiR620 and 635 nm for 2-MeSiR620-a1.
The absorbance and fluorescence spectra of 2-MeSiR630 (Compound 3) synthesized in step (b) and 2-MeSiR630-a1 (Compound 4) synthesized in step (d) were measured. Measurements were carried out in an aqueous solution of 0.1 sodium phosphate having a pH 7.4 and containing 0.1% DMSO. The excitation light in the fluorescence spectrum measurement was 633 nm for 2-MeSiR630 and 648 nm for 2-MeSiR630-a1.

A short description of data set [5]: Optical characteristics of Compound 5 in pH 7.4 sodium phosphate. In kind it is physicochemical. The note with it: 0.1 sodium phosphate pH 7.4, 0.3% DMSO. As for the experimental part:
The fluorescence wavelength was 665 nm and the wavelength of the excitation light was 637 nm. The measurement was carried out in an aqueous solution of 0.1 sodium phosphate having a pH 7.4 and containing 0.3% DMSO. Cy 5.5 (ΦFl=0.23) in water was used as the fluorescence reference to determine the fluorescence quantum yield.

Data set [6] in a line: Fluorescence quantum yield of Compound 5 in various solvents. It is filed as physicochemical.
The conditions of data set [7]: in methanol; cited from earlier work.
Data set [8] is described as follows: Optical characteristics / pH profile of N-AcSi-Rhodol (Compound 9). In kind it is physicochemical. The method, then: Measurement was carried out at various pH in 0.1M sodium phosphate solution containing 10% DMSO. The excitation wavelength was 503 nm.
Data set [9] in a line: Optical characteristics / pH profile of Si-Rhodol (Compound 7). It is filed as physicochemical. As for the experimental part:
The pH profile of the absorbance and fluorescence spectra of Si-Rhodol (Compound 7) was examined. Measurement was carried out at various pH in 0.1M sodium phosphate solution containing 1% DMSO. The excitation wavelengths were 507 nm (FIG. 13) and 584 nm (FIG. 14).

A short description of data set [10]: Optical characteristics / pH profile of O-Me-Si-Rhodol (Compound 8). It is filed as physicochemical. As for the experimental part:
The pH profile of the absorbance and fluorescence spectra of O-Me-Si-Rhodol (Compound 8) was examined. Measurement was carried out at various pH levels in 0.1M sodium phosphate solution containing 10% DMSO. The excitation wavelength was 503 nm.

Setting [11] is: 0.1M sodium phosphate, 10% DMSO.
Where [12] appears, read: 0.1M sodium phosphate, 10% DMSO, excitation 503 nm.

As for `Cc1cccc(C)c1C1=c2cc3c(cc2[Si](C)(C)c2cc(N)ccc21)=[N+](C)CC3` [Compound 13, diMeSiR650], in [1], the “Φn (absolute fluorescence quantum yield measured using integrating spheres)” value is listed as 0.15, the λabs. max amounted to 637 nm and the λfl. max amounted to 670 nm.
Take `CC(=O)Nc1ccc2c(c1)[Si](C)(C)c1cc3c(cc1=C2c1ccccc1C)CC[N+]=3C` [Compound 6, Ac-IndoSiR]: the Absmax in [2] (Acetone) was found to be 532 nm; in [2] (Benzene) it was 644 nm; in data set [2] (CH2Cl2), 552 nm; in data set [2] (CH3CN) it was 529 nm; in [2] (CHCl3), 623 nm; in data set [2] (DMF) it was 536 nm. Besides, the Absmax turned out to be 534 nm in data set [2] (DMSO); 526 nm in data set [2] (MeOH); 500 nm in data set [2] (NaPi buffer (pH 7.4)); 559 nm in data set [2] (THF); 644 nm in data set [2] (Toluene). For the same molecule, the Emmax amounted to 641 nm in data set [2] (Acetone); 665 nm in [2] (Benzene); 641 nm in [2] (CH2Cl2); 636 nm in data set [2] (CH3CN); 652 nm in data set [2] (CHCl3); 645 nm in [2] (DMF). Also, the Emmax in data set [2] (DMSO) is recorded as 651 nm; in data set [2] (MeOH) it was 637 nm; in [2] (NaPi buffer (pH 7.4)) it was 630 nm; in [2] (THF), 654 nm; in data set [2] (Toluene), 665 nm. Further, the ΦFl stood at 0.15 in data set [2] (Acetone); 0.26 in data set [2] (Benzene); 0.27 in data set [2] (CH2Cl2); 0.16 in data set [2] (CH3CN); 0.44 in data set [2] (CHCl3, absolute fluorescence quantum yield measurement device); 0.19 in data set [2] (DMF). The ΦFl is listed as 0.12 in data set [2] (DMSO); 0.10 in data set [2] (MeOH); 0.06 in data set [2] (NaPi buffer (pH 7.4)); 0.18 in [2] (THF); 0.31 in [2] (Toluene). Also, the ε in data set [2] (Acetone) is 27,000 M^−1cm^−1; in data set [2] (Benzene), 34,000 M^−1cm^−1; in data set [2] (CH2Cl2), 33,000 M^−1cm^−1; in [2] (CH3CN), 29,000 M^−1cm^−1; in [2] (CHCl3), 36,000 M^−1cm^−1; in data set [2] (DMF), 9,000 M^−1cm^−1. For the same molecule, the ε in [2] (DMSO) was 30,000 M^−1cm^−1; in [2] (MeOH) it was 27,000 M^−1cm^−1; in data set [2] (NaPi buffer (pH 7.4)), 29,000 M^−1cm^−1; in [2] (THF) it was 21,000 M^−1cm^−1; in data set [2] (Toluene), 32,000 M^−1cm^−1.
Regarding `Cc1ccccc1C1=c2cc3c(cc2[Si](C)(C)c2cc(/N=N/c4ccc(N(C)C)cc4)ccc21)=[N+](C)CC3` [Compound 11, 2MeazoSiR650], in data set [1], the “Φn (absolute fluorescence quantum yield measured using integrating spheres)” value is on record as less than 0.001 and the λabs. max was 590 nm. Besides, the “change in fluorescence intensity in a hypoxic environment” value in the data set on rat liver microsomes is reported as “dramatic increase in fluorescence intensity”.
On to `CCN1\C(=C/C=C/C=C/C2=[N+](CCCCCC(=O)O)c3ccc4c(S(=O)(=O)O)cc(S(=O)(=O)O)cc4c3C2(C)C)C(C)(C)c2c1ccc1c(S(=O)(=O)[O-])cc(S(=O)(=O)O)cc21` [Cy 5.5], for which the “ΦFl of fluorescence reference” value in [3] is given as 0.23.
As to `CNc1ccc2c(c1)[Si](C)(C)C1=CC(=[N+](C)C)C=CC1=C2c1ccccc1C` [Compound 3, 2-MeSiR630], in data set [4], the Absmax came out at 633 nm, the Emmax was 649 nm, the ε is reported as 120,000 M^−1cm^−1 and the Φfl is 0.11.
In [5], `Cc1ccccc1C1=c2cc3c(cc2[Si](C)(C)c2cc(N)ccc21)=[N+](C)CC3` [Compound 5, 2MeIndoSiR] gave a ε of 54000 M⁻¹ cm⁻¹. Besides, the λem in data set [5] is reported as 665 nm. In [5], the λex came out at 641 nm. This molecule also returned a Φfl in data set [5] (Cy 5.5 in water as reference) of 0.18. Besides, the “Φn (absolute fluorescence quantum yield measured using integrating spheres)” value in [1] is recorded as 0.14. This molecule also showed a λabs. max in data set [1] of 637 nm. In data set [1], this molecule returned a λfl. max of 664 nm. In addition, the “Fluorescence quantum yield ΦF1” value in data set [6] (20% FBS) was 0.36; in data set [6] (Acetone) it was 0.39; in data set [6] (CH3CN), 0.42; in data set [6] (CHCl3), 0.89; in [6] (DMF) it was 0.39; in [6] (DMSO) it was 0.35. For the same molecule, the “Fluorescence quantum yield ΦF1” value in data set [6] (FBS) came out at 0.35; in data set [6] (MeOH), 0.46.
As for Cresyl violet, the “Φfl of fluorescence reference” value in data set [7] is reported as “^bCresyl violet in methanol (Φfl = 0.54) was used as the fluorescence reference”.
As for `CC(=O)Nc1ccc2c(c1)[Si](C)(C)C1=CC(=O)C=CC1=C2c1ccccc1C` [Compound 9, N-AcSi-Rhodol], the λabs was 455 nm in data set [8] (setting [11]) and roughly 450 nm in data set [8] (0.1M sodium phosphate, 10% DMSO, listed as N-AcSi-Rhodol). The λem in data set [8] (setting [12]) came out at 590 nm. In addition, in data set [8] (pH: 7.4), the ΦFL is given as 0.17 (pH: 7.4). Also, the ε in data set [8] (pH: 10.0) is listed as 7000 (pH: 10.0) M^−1cm^−1.
On to `Cc1ccccc1C1=C2C=CC(=O)C=C2[Si](C)(C)c2cc(N)ccc21` [Compound 7, Si-Rhodol], for which, in data set [9] (0.1M sodium phosphate, 1% DMSO), the ε is 40,000 M^−1cm^−1 and the λem worked out at 605 nm. Also, the “absorption maximum (FIG. 14)” value in data set [9] (FIG. 14, excitation wavelength 584 nm) is roughly 600 nm. Further, in [9] (pH: 3.0), the Φfl is 0.28 (pH: 3.0) and the λabs is on record as 507 (pH: 3.0) nm. Also, in data set [9] (pH: 7.4), the Φfl is 0.56 (pH: 7.4) and the λabs is listed as 584 (pH: 7.4) nm. Also, the λabs in data set [9] (pH: 7.4, listed as Si-Rhodol) is given as roughly 580 nm.
In the case of `Cc1ccccc1C1=C2C=CC(=[N+](C)C)C=C2[Si](C)(C)c2cc(N(C)CCCC(=O)O)ccc21` [Compound 4, 2-MeSiR630-a1], in data set [4], the Absmax is 648 nm, the Emmax is 666 nm, the ε was 140,000 M^−1cm^−1 and the Φfl was 0.30.
Regarding `COc1ccc2c(c1)[Si](C)(C)C1=CC(=N)C=CC1=C2c1ccccc1C` [Compound 8, O-MeSi-Rhodol], the λabs in [10] (setting [11]) is reported as 503 nm; in data set [10] (0.1M sodium phosphate, 10% DMSO, listed as O-MeSi-Rhodol) it was roughly 500 nm. Also, the λem in [10] (setting [12]) is 580 nm. For the same molecule, the “absorption maximum (FIG. 16)” value in data set [10] (FIG. 16) is roughly 600 nm. The ΦFL in data set [10] (pH: 3.0) is reported as 0.24 (pH: 3.0); in [10] (pH: 7.4), 0.18 (pH: 7.4).
With 2-MeSiR620 [Compound 1], in data set [4], the Absmax came to 620 nm, the Emmax stood at 638 nm, the ε is 96,000 M^−1cm^−1 and the Φfl came out at 0.21.
As to `Cc1cccc(C)c1C1=c2cc3c(cc2[Si](C)(C)c2cc(/N=N/c4ccc(N(C)C)cc4)ccc21)=[N+](C)CC3` [Compound 14, diMeazoSiR650], in data set [1], the “Φn (absolute fluorescence quantum yield measured using integrating spheres)” value worked out at 0.002 and the λabs. max was determined as 587 nm. Besides, in the data set with rat liver microsomes, the “change in fluorescence intensity in a hypoxic environment” value is listed as “dramatic increase in fluorescence intensity”.
